pEC50: −log10 of the molar value. Blank lines part the entries; values can stand above or below the compound they belong to. Activity calls are given as the source filed them. No cut-off for these calls is given here. Non-standard residues stand in square brackets, D forms with d. Residues, ends and D or L forms follow the SMILES beside them. ξ: configuration not given here. ξS = NC(CO)C(=O)O
Key:
[1] = target: T1, BTB/POZ domain-containing protein KCTD12 (Homo sapiens, UniProt Q96CX2); experiment: Binding affinity to recombinant human 6X His-tagged KCTD12 T1 domain (27 to 131 residues) expressed in Escherichia coli BL21 DE3 cells preincubated for 1 hr followed by probing with HRP-conjugated 6X-His tag antibody for 0.5 hrs by SPOT peptide microarray analysis; details: for pEC50: read-out: EC50
[2] = target: BTB/POZ domain-containing protein KCTD8 (Homo sapiens) (UniProt Q6ZWB6); experiment: Displacement of TAMRA-AAG-SLQLPILHHAYLPSIGGV from recombinant human 6X His-tagged KCTD8 T1 domain (37 to 148 residues) expressed in Escherichia coli BL21 DE3 cells by fluorescence polarization assay
[3] = target: BTB/POZ domain-containing protein KCTD16 (Homo sapiens) (UniProt Q68DU8); experiment: Displacement of TAMRA-AAG-SLQLPILHHAYLPSIGGV from recombinant 6X His tagged KCTD16 T1 domain (unknown origin) by fluorescence polarization assay
[4] = target: BTB/POZ domain-containing protein KCTD16 (Homo sapiens) (UniProt Q68DU8); experiment: Binding affinity to recombinant 6X His-tagged KCTD16 T1 domain (unknown origin) assessed as high-order oligomer formation by measuring oligomer molecular weight at protein:compound concentration ratio of 1:2 by SEC-MALS analysis (reference value: […] +/- 2.5 kDa)
[5] = target: BTB/POZ domain-containing protein KCTD16 (Homo sapiens) (UniProt Q68DU8); experiment: Binding affinity to recombinant 6X His-tagged KCTD16 T1 domain (unknown origin) assessed as increase in thermal stability of the protein at protein:compound ratio of 1:5 by Thermofluor analysis
[6] = target: BTB/POZ domain-containing protein KCTD8 (Homo sapiens) (UniProt Q6ZWB6); experiment: Binding affinity to Myc-tagged full length KCTD8 (unknown origin) expressed in HEK293 cells using resin-bound immobilized compound by pull down analysis; assay type: cell-based
[7] = target: BTB/POZ domain-containing protein KCTD16 (Homo sapiens) (UniProt Q68DU8); experiment: Binding affinity to Myc-tagged full length KCTD16 (unknown origin) expressed in HEK293 cells using resin-bound immobilized compound by pull down analysis; assay type: cell-based
[8] = target: BTB/POZ domain-containing protein KCTD8 (Mus musculus) (UniProt Q50H33); experiment: Binding affinity to KCTD8 in wild type mouse brain membrane using resin-bound immobilized compound incubated for overnight by pull-down experiment based immunoblot analysis; assay type: cell membranes
[9] = target: BTB/POZ domain-containing protein KCTD12 (Mus musculus) (UniProt Q6WVG3); experiment: Binding affinity to KCTD12 in wild type mouse brain membrane using resin-bound immobilized compound incubated for overnight by pull-down experiment based immunoblot analysis; assay type: cell membranes
[10] = target: BTB/POZ domain-containing protein KCTD16 (Mus musculus) (UniProt Q5DTY9); experiment: Binding affinity to KCTD16 in wild type mouse brain membrane using resin-bound immobilized compound incubated for overnight by pull-down experiment based immunoblot analysis; assay type: cell membranes
[11] = target: BTB/POZ domain-containing protein KCTD8 (Mus musculus) (UniProt Q50H33); experiment: Binding affinity to KCTD8 in wild type mouse brain cytoplasmic fraction using resin-bound immobilized compound incubated for overnight by pull-down experiment based immunoblot analysis; assay type: subcellular
[12] = target: BTB/POZ domain-containing protein KCTD12 (Mus musculus) (UniProt Q6WVG3); experiment: Binding affinity to KCTD12 in wild type mouse brain cytoplasmic fraction using resin-bound immobilized compound incubated for overnight by pull-down experiment based immunoblot analysis; assay type: subcellular
[13] = target: BTB/POZ domain-containing protein KCTD16 (Mus musculus) (UniProt Q5DTY9); experiment: Binding affinity to KCTD16 in wild type mouse brain cytoplasmic fraction using resin -bound immobilized compound incubated for overnight by pull-down experiment based immunoblot analysis; assay type: subcellular
[14] = target: T1, BTB/POZ domain-containing protein KCTD12; experiment: Displacement of TAMRA-AAG-SLQLPILHHAYLPSIGGV from recombinant human 6X His-tagged KCTD12 T1 domain (27 to 131 residues) expressed in Escherichia coli BL21 DE3 cells by fluorescence polarization assay

BTB/POZ domain-containing protein KCTD8 (Mus musculus), sequence (Q50H33 whole entry, the tested form may be a part): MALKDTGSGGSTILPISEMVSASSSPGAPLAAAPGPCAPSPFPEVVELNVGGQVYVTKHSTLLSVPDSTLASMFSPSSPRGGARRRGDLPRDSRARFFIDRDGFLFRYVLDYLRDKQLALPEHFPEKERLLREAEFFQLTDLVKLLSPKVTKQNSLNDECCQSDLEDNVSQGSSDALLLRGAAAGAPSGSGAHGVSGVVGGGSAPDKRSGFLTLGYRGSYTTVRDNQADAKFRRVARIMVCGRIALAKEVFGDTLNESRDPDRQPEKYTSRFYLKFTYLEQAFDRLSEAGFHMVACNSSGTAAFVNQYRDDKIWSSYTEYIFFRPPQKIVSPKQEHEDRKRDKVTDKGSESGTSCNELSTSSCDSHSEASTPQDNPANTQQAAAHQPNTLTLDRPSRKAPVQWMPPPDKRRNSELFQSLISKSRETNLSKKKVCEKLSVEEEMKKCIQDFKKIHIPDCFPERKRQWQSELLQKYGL
T1 sequence (Q96CX2 whole entry, the tested form may be a part): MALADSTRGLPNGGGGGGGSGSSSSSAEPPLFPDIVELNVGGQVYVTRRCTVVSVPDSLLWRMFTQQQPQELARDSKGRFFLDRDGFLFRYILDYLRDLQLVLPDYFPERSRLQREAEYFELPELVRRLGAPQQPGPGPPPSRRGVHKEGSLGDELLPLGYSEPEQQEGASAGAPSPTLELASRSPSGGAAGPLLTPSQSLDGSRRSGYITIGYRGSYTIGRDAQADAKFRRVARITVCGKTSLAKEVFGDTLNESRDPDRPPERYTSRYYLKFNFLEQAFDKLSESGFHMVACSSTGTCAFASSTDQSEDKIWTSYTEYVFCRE
BTB/POZ domain-containing protein KCTD8 (Homo sapiens), sequence (Q6ZWB6 whole entry, the tested form may be a part): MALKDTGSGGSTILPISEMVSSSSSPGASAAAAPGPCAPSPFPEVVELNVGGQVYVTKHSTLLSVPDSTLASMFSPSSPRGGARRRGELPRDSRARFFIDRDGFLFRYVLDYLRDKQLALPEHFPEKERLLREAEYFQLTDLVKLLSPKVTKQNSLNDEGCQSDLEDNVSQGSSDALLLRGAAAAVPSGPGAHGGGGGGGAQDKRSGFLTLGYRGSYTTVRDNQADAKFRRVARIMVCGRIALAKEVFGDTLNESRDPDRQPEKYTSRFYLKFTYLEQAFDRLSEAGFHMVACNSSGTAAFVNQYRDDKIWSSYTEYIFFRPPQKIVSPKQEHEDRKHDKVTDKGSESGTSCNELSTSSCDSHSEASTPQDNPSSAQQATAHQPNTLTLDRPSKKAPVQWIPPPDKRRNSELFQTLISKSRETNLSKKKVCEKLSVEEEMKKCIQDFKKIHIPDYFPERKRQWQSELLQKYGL
BTB/POZ domain-containing protein KCTD16 (Homo sapiens), sequence (Q68DU8 whole entry, the tested form may be a part): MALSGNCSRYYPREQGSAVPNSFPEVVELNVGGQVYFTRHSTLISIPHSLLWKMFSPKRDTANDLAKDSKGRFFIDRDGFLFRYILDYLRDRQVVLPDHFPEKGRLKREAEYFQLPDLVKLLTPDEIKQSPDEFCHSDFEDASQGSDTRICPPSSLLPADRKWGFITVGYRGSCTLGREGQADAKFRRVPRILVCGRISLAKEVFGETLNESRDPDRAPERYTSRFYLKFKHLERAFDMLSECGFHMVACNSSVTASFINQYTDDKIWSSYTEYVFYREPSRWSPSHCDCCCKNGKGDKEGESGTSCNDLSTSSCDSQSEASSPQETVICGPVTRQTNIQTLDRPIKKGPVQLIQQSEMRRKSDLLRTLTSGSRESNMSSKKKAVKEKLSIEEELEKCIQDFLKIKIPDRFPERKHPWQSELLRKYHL
BTB/POZ domain-containing protein KCTD16 (Mus musculus), sequence (Q5DTY9 whole entry, the tested form may be a part): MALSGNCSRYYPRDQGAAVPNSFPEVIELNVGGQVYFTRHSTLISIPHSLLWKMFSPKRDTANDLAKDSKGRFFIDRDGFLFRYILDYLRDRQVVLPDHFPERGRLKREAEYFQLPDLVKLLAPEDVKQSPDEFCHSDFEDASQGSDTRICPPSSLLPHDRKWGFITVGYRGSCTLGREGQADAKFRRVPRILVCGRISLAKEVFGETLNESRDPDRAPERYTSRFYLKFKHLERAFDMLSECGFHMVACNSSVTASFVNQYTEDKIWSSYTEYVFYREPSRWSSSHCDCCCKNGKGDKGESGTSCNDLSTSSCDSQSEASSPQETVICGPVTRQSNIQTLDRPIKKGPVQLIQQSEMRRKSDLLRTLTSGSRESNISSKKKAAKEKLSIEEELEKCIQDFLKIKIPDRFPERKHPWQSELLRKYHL
BTB/POZ domain-containing protein KCTD12 (Mus musculus), sequence (Q6WVG3 whole entry, the tested form may be a part): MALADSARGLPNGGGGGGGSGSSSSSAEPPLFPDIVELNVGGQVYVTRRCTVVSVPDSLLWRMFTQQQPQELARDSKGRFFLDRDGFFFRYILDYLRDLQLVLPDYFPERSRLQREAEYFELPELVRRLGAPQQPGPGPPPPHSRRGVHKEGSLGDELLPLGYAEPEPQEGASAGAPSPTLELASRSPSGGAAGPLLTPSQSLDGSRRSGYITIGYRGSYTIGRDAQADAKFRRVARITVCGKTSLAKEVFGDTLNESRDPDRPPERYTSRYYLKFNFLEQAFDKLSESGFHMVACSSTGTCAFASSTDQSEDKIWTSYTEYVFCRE

Compound: CC(C)C[C@H](NC(=O)[C@H](CCCNC(=N)N)NC(=O)[C@H](CC(=O)O)NC(=O)[C@@H]1CCCN1C(=O)[C@@H]1CCCN1C(=O)[C@H](CCC(=O)O)NC(=O)[C@@H]1CCCN1)C(=O)N[C@@H](CO)C(=O)N[C@@H](CS)C(=O)N[C@@H](CC(=O)O)C(=O)NCC(=O)N[C@@H](CO)C(=O)N[C@@H](CCCNC(=N)N)C(=O)N[C@H](C(=O)N[C@@H](Cc1cnc[nH]1)C(=O)O)C(C)C
- EC50 [1]: Not Active

Compound: CC[C@H](C)[C@H](NC(=O)C(CO)NC(=O)[C@@H]1CCCN1C(=O)[C@H](CC(C)C)NC(=O)[C@H](C)NC(=O)[C@H](C)NC(=O)[C@H](Cc1cnc[nH]1)NC(=O)[C@H](Cc1cnc[nH]1)NC(=O)[C@H](CC(C)C)NC(=O)[C@@H](NC(=O)[C@@H]1CCCN1C(=O)[C@H](CC(C)C)NC(=O)[C@H](CCC(N)=O)NC(=O)[C@H](CC(C)C)NC(=O)[C@@H](N)CO)[C@@H](C)CC)C(=O)NCC(=O)NCC(=O)N[C@H](C(=O)O)C(C)C (some centres not stated) (H-SLQLPILHHAALP[ξS]IGGV-OH)
- EC50 [1]: Not Active
- IC50 [14]: Not Active
- Ki [14]: Not Active

Compound: H-AEKEERVSELRHQLQ-OH
- EC50 [1]: Not Active

Compound: H-EAQDTMKTGSSTNNN-OH
- EC50 [1]: Not Active

Compound: H-EEKSRLLEKENRELE-OH
- EC50 [1]: Not Active

Compound: H-EKIIAEKEERVSELR-OH
- EC50 [1]: Not Active

Compound: H-EPSGGLPRGPPEPPD-OH
- EC50 [1]: Not Active

Compound: H-GLPRGPPEPPDRLSC-OH
- EC50 [1]: Not Active

Compound: H-GPPEPPDRLSCDGSR-OH
- EC50 [1]: Not Active

Compound: H-IIAEKEERVSELRHQ-OH
- EC50 [1]: Not Active

Compound: H-KEERVSELRHQLQSR-OH
- EC50 [1]: Not Active

Compound: H-KSRLLEKENRELEKI-OH
- EC50 [1]: Not Active

Compound: H-KTGSSTNNNEEEKSR-OH
- EC50 [1]: Not Active

Compound: H-LPILHHAYLPSIGGV-OH
- Activity [1]: Active

Compound: H-LQLPILHHAYLPSIG-OH
- Activity [1]: Active

Compound: H-NEEEKSRLLEKENRE-OH
- EC50 [1]: Not Active

Compound: H-NRELEKIIAEKEERV-OH
- EC50 [1]: Not Active

Compound: H-QDTMKTGSSTNNNEE-OH
- EC50 [1]: Not Active

Compound: H-RLLEKENRELEKIIA-OH
- EC50 [1]: Not Active

Compound: H-SLQLPILHHAYLPSI-OH
- Activity [1]: Active

Compound: H-SLQLPILHHAYLPSYHYY-OH
- pEC50 [1]: 6.68
- IC50 [14]: Nd(Insoluble)
- Ki [14]: Nd(Insoluble)

Compound: H-SLQLPILHHAYLPYYHYY-OH
- pEC50 [1]: 5.87
- IC50 [14]: Nd(Insoluble)
- Ki [14]: Nd(Insoluble)

Compound: H-STNNNEEEKSRLLEK-OH
- EC50 [1]: Not Active

Compound: H-TMKTGSSTNNNEEEK-OH
- EC50 [1]: Not Active

Continued, values first:

- EC50 [1]: Not Active
Compound: CC(C)C[C@H](NC(=O)CNC(=O)CNC(=O)[C@H](CO)NC(=O)[C@@H]1CCCN1C(=O)[C@H](CCC(=O)O)NC(=O)[C@@H]1CCCN1C(=O)[C@@H]1CCCN1C(=O)[C@H](NC(=O)[C@@H]1CCCN1C(=O)[C@@H]1CCCN1C(=O)[C@H](Cc1cnc[nH]1)NC(=O)[C@H](CCCNC(=N)N)NC(=O)[C@@H](N)CCCNC(=N)N)[C@@H](C)O)C(=O)N1CCC[C@H]1C(=O)O

- Activity [2]: Active
- Activity [3]: Active
Compound: CC[C@H](C)[C@H](NC(=O)[C@H](CO)NC(=O)[C@@H]1CCCN1C(=O)[C@H](CC(C)C)NC(=O)[C@H](Cc1ccc(O)cc1)NC(=O)[C@H](C)NC(=O)[C@H](Cc1cnc[nH]1)NC(=O)[C@H](Cc1cnc[nH]1)NC(=O)[C@H](CC(C)C)NC(=O)[C@H](NC(=O)[C@@H]1CCCN1C(=O)[C@H](CC(C)C)NC(=O)[C@H](CCC(N)=O)NC(=O)[C@H](CC(C)C)NC(=O)[C@H](CO)NC(=O)[C@H](CC(C)C)NC(=O)[C@H](CCCNC(=N)N)NC(=O)[C@@H](N)CCCNC(=N)N)[C@@H](C)CC)C(=O)O

- Activity [4]: 60.1 kDa
- Activity [5]: Active
- Activity [6]: Active
- Activity [7]: Active
- Activity [8]: Active
- Activity [9]: Active
- Activity [10]: Active
- Activity [11]: Active
- Activity [12]: Active
- Activity [13]: Active
Compound: CC[C@H](C)[C@H](NC(=O)[C@H](CO)NC(=O)[C@@H]1CCCN1C(=O)[C@H](CC(C)C)NC(=O)[C@H](Cc1ccc(O)cc1)NC(=O)[C@H](C)NC(=O)[C@H](Cc1cnc[nH]1)NC(=O)[C@H](Cc1cnc[nH]1)NC(=O)[C@H](CC(C)C)NC(=O)[C@H](NC(=O)[C@@H]1CCCN1C(=O)[C@H](Cc1ccc(O)cc1)NC(=O)[C@H](CC(N)=O)NC(=O)[C@H](Cc1ccc(O)cc1)NC(=O)[C@H](N)Cc1ccc(O)cc1)[C@@H](C)CC)C(=O)NCC(=O)NCC(=O)N[C@H](C(=O)O)C(C)C

- EC50 [1]: Not Active
- IC50 [14]: Not Active
- Ki [14]: Not Active
Compound: CC[C@H](C)[C@H](NC(=O)C(CO)NC(=O)[C@@H]1CCCN1C(=O)[C@H](CC(C)C)NC(=O)[C@H](Cc1ccccc1)NC(=O)[C@H](C)NC(=O)[C@H](Cc1cnc[nH]1)NC(=O)[C@H](Cc1cnc[nH]1)NC(=O)[C@H](CC(C)C)NC(=O)[C@@H](NC(=O)[C@@H]1CCCN1C(=O)[C@H](CC(C)C)NC(=O)[C@H](CCC(N)=O)NC(=O)[C@H](CC(C)C)NC(=O)[C@@H](N)CO)[C@@H](C)CC)C(=O)NCC(=O)NCC(=O)N[C@H](C(=O)O)C(C)C (some centres not stated) (H-SLQLPILHHAFLP[ξS]IGGV-OH)

- EC50 [1]: Not Active
Compound: H-ELEKIIAEKEERVSE-OH

- EC50 [1]: Not Active
Compound: H-GSSTNNNEEEKSRLL-OH

- EC50 [1]: Not Active
Compound: H-HPPTPPEPSGGLPRG-OH

- EC50 [1]: Not Active
Compound: H-KENRELEKIIAEKEE-OH

- EC50 [1]: Not Active
Compound: H-LEKENRELEKIIAEK-OH

- EC50 [1]: Not Active
Compound: H-NNNEEEKSRLLEKEN-OH

- EC50 [1]: Not Active
Compound: H-PPEPSGGLPRGPPEP-OH

- EC50 [1]: Not Active
Compound: H-PRGPPEPPDRLSCDG-OH

- EC50 [1]: Not Active
Compound: H-PTPPEPSGGLPRGPP-OH

- Activity [1]: Active
Compound: H-QLPILHHAYLPSIGG-OH

- EC50 [1]: Not Active
Compound: H-SGGLPRGPPEPPDRL-OH

- Activity [6]: inactive
- Activity [7]: inactive
- Activity [8]: inactive
- Activity [9]: inactive
- Activity [10]: inactive
- Activity [11]: inactive
- Activity [12]: inactive
- Activity [13]: inactive
Compound: H-SLQLPIAHHAALPSIGGV-OH

- Activity [2]: Active
- Activity [3]: Active
- Activity [4]: 66.4 kDa
- Activity [5]: Active
- Activity [6]: Active
- Activity [7]: Active
- Activity [8]: Active
- Activity [9]: Active
- Activity [10]: Active
- Activity [11]: Active
- Activity [12]: Active
- Activity [13]: Active
Compound: H-SLQLPILHHAYLPSIGGV-OH
